According to PubChem BioAssay (NCI):
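Compound exposure: 48 hours, 5 concentrations, 96-well plates. TGI denotes the concentration required for complete inhibition of growth.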

Tests used:
Test in all cases: NCI anticancer screen, dose series, 48 h
[1] = system: SR leukemia
[2] = system: TK-10 renal
[3] = system: 786-0 renal
[4] = system: OVCAR-8 ovarian
[5] = system: HCT-116 colon
[6] = system: SNB-75 CNS
[7] = system: SW-620 colon
[8] = system: UACC-62 melanoma
[9] = system: SK-MEL-28 melanoma
[10] = system: MDA-N
[11] = system: SK-MEL-5 melanoma
[12] = system: RPMI-8226 leukemia
[13] = system: NCI-H226 lung
[14] = system: SF-268 CNS

Row | SMILES | TGI [1] [µM] | TGI [2] [µM] | TGI [3] [µM] | TGI [4] [µM] | TGI [5] [µM] | TGI [6] [µM] | TGI [7] [µM] | TGI [8] [µM] | TGI [9] [µM] | TGI [10] [µM] | TGI [11] [µM] | TGI [12] [µM] | TGI [13] [µM] | TGI [14] [µM]
1 | c1ccc(C(NCC2CCO2)(c2ccccc2)c2ccccc2)cc1 (stereo not drawn) | > 100 | 28.4 | 41.6 | 26.6 | 56 | 28.8 | 44.4 | 32 | > 100 | 54.5 | 63.9 | > 100 | 26.6 | 
2 | O=C(OC1C2OC(=O)c3cc(O)c(O)c(O)c3Oc3cc4c(c(O)c3O)-c3c(cc(O)c(O)c3O)C(=O)OCC3OC(O)C(OC(=O)c5cc(O)c(O)c(O)c5Oc5cc6c(c(O)c5O)-c5c(cc(O)c(O)c5O)C(=O)OC1C(COC6=O)OC2O)C(OC(=O)c1cc(O)c(O)c(O)c1)C3OC4=O)c1cc(O)c(O)c(O)c1 (stereo not drawn) | 27.3 | > 100 | 47.1 | 81.3 | 57.2 |  | 40.5 | 68.5 | > 100 | 46.6 | > 100 | 50.1 | > 100 | > 100
3 | COC(CN(C(C)=O)C1CCC2(SCCS2)c2[nH]c3ccccc3c21)OC (stereo not drawn) | > 100 | > 100 | > 100 | > 100 | > 100 | > 100 | > 100 |  | > 100 | > 100 | > 100 | > 100 | > 100 | > 100
4 | O=C(O)CCC(=O)c1ccc2c(c1)C(C(=O)O)CC2 (stereo not drawn) | > 100 | > 100 | > 100 | > 100 | 2.25 |  | > 100 | > 100 | > 100 | > 100 | > 100 | > 100 | > 100 | > 100
5 | COc1ccc(-n2[nH]nc(C(N)=O)c2=O)cc1 | > 100 |  | > 100 | > 100 | > 100 | > 100 | > 100 | > 100 | > 100 | > 100 | > 100 | > 100 | > 100 | > 100
6 | C=C1C(=O)O[C@H]2C[C@@]3(COC(C)=O)C=COC=C(COC(=O)C(C)C)C3CC12 (stereo partly drawn) | 91.8 | > 100 | > 100 | > 100 | > 100 | 67.5 | > 100 | 41.2 | > 100 | > 100 | > 100 | 63.6 | > 100 | 
7 | CO/N=C(/C)c1cccc(Nc2nc3ccccc3c3[nH]c4ccccc4c23)c1 | > 100 |  | 21.5 | 20.9 | 14 | 18.6 | 27.5 | 19.3 |  | 20.4 | 18.2 |  | 33.2 | 25.7
8 | Nc1[nH]nc(Nc2ccc(Cl)cc2)c1P(=O)(c1ccccc1)c1ccccc1 | > 100 | > 100 |  | 46.4 |  | 51.8 | > 100 | 56.4 | 64.9 | 47.4 | 67.7 | > 100 | 50.2 | 33.8
9 | CCCCCCCCCCCCCCCCNC(=O)C(=O)/C=C(\O)c1ccc(C)cc1 | > 10 | > 10 | > 10 | > 10 |  | > 10 | > 10 |  | > 10 | > 10 | > 10 | > 10 | > 10 | > 10
10 | O=C1/C(=C\c2cccc(Oc3ccccc3)c2)SC(c2ccccc2)N1c1ccccc1 (stereo not drawn) | 37.2 | > 100 | > 100 | > 100 | > 100 |  | > 100 | > 100 | > 100 | 97.9 | > 100 | 50.3 | > 100 | > 100
11 | C/C(=N\N=C(\N)SB(F)F)c1ccc2ccccc2c1 | > 100 | > 100 | > 100 | > 100 | > 100 | > 100 | > 100 | > 100 | > 100 | > 100 | > 100 |  | > 100 | > 100
12 | COc1cc2c(cc1OC)C(=O)N(c1ccc(O)cc1)C2=O | > 100 | > 100 | > 100 | > 100 | > 100 |  | > 100 | > 100 | > 100 | > 100 | > 100 | > 100 | > 100 | > 100
13 | CCOC(=O)c1c(N=P(c2ccccc2)(c2ccccc2)c2ccccc2)nnc(-c2ccccc2)c1-c1ccccc1 | > 100 | > 100 | > 100 | > 100 | > 100 | > 100 | > 100 | > 100 | > 100 | > 100 | > 100 |  | > 100 | > 100
14 | Clc1ccc(C2=NN=C3C(c4ccccc4)=Nc4ccccc4N3C2)cc1 | > 21.9 | > 50.2 | > 100 | > 100 | > 100 |  | > 100 | > 100 | > 100 | > 100 | 16.5 | > 29.4 | > 100 | > 93.9
